Test results from patent US20140323457A1, “BETA-O/S/N FATTY ACID BASED COMPOUNDS AS ANTIBACTERIAL AND ANTIPROTOZOAL AGENTS” (LUDWIG-MAXIMILIANS-UNIVERSITÄT MÜNCHEN, priority 2011, published 2014).
pEC50: −log10 of the molar value. Read-outs that look alike come from different tables or passages of the source.

Tests used:
[1] = test system: S. aureus strain NCTC 8325; assay: liquid culture-based hemolysis assay (secreted hemolysins, sheep red blood cells); format: cell-based
Experimental: The inhibition of hemolysin production has thus been further analysed in liquid bacterial cultures in order to evaluate their potential effects on bacterial growth simultaneously. Besides AVU1Acid, AVU1AAc, AVU1AA and VK273 the following further compounds were tested in liquid bacterial cultures:
(§1) 1 ml of an appropriate bacterial broth for the standard laboratory S. aureus strain NCTC 8325 were inoculated with 1*10^6 cfu. The cultures were kept overnight at 37° C. with gentle shaking 300 rpm in the presence of compounds AVU1Acid, AVU1AAc, AVU1AA or VK273 according to the present invention at different concentrations or dimethyl sulfoxide (DMSO) as control. Different beta-lactone virulence inhibitors were used as reference compounds. Following overnight incubation the optical density was measured in order to determine the minimal inhibiting concentration (MIC), which is defined as the lowest concentration of an antimicrobial that will inhibit the visible growth of a microorganism after overnight incubation. A 100 μl fraction of the supernatant of the grown bacterial cultures was subsequently analysed for the content of secreted bacterial hemolysins by addition of sheep red blood cells (10% v/v in PBS) and the measurement of the optical density at 410 nm after 30 min incubation at 37° C.
The following results were obtained in further liquid culture-based hemolysis assays. Since the assays were performed at different times with different charges of sheep red blood cells AVU1 has been tested as a reference substance in each assay. The resulting EC50 values determined for the tested compounds have to be assessed with respect to the EC50 value determined for AVU1.

[2] = test system: S. aureus strain NCTC 8325; assay: minimal inhibiting concentration (MIC) in liquid bacterial culture; format: cell-based; conditions: overnight 37° C., read-out: MIC
Experimental: as §1

[3] = stability in mouse plasma; format: in vitro ADME; conditions: 100 μM, 37° C., 0-240 min; FIG. 8, FIG. 10
Experimental: (§2) We investigated the stability of the compound herein in plasma preparations in comparison the beta-lactone compounds. Human plasma was obtained lyophilized from Sigma and reconstituted in sterile H2O. For human plasma 3.8% trisodium citrate was used as anticoagulant. Mouse plasma was prepared from whole blood samples from SKH-1 and Balb/C mice using Lithium-Heparin as anticoagulant and pooled from at least three different donor animals. Plasma samples were sterile filtered and stored in aliquots at −20° C. […] Test compounds were diluted 1:100 from a DMSO stock solution to a final concentration of 100 μM in both human and mouse plasma prewarmed for 10 min in an orbital shaker to 37° C. Test compounds were further incubated at 37° C. in the orbital shaker. Samples were withdrawn at time points 0, 5, 10, 20, 30, 60, 120, 240 min and immediately quenched by the addition of an equal volume of ice-cold acetonitrile. Subsequently, all samples were spun at maximum speed in a microcentrifuge to pellet precipitated proteins and samples were prepared for LC-MS analysis. Compound quantification occurred through analysis via the LTQ-FT high resolution mass-spectrometer and XCalibur-Software purchased at Thermo Scientific, Dreieich, D-63303 Germany.

[4] = stability in human plasma; format: in vitro ADME; conditions: SKH-1 and Balb/C (mouse plasma); positive control at 100 μM in every experiment (human and mouse plasma), 37° C.
Experimental: as §2

CIpP = target: T1, CIpP (Staphylococcus aureus, UniProt Q2G036); assay: competitive ABPP proteome labeling of living S. aureus cells with U1P probe; format: binding; conditions: FIG. 4
T1 construct: Living S. aureus NCTC8325 cells from a fresh stationary liquid culture were aliquoted; endogenous in cells; host or cells: living S. aureus NCTC8325 cells
T1 sequence (Q2G036 1-195): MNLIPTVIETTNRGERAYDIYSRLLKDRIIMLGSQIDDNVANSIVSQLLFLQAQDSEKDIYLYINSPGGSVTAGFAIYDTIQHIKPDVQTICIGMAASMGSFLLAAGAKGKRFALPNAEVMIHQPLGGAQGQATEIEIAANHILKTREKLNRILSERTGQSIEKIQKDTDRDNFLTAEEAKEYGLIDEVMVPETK
Description: The compound U1P was used as a probe for activity-based labeling (activity-based protein profiling, ABPP) of the S. aureus NCTC 8325 proteome, as described in WO 2009/106211.
The U1P ABPP probe represents the lead structures of the known beta-lactone CIpP inhibitors modified with a terminal alkyne group. This compound is both active in hemolysis inhibition and CIpP inhibition. The terminal alkyne group comprised in UIP can be used for appending a fluorophore such as rhodamine-azide using click chemistry (1,3-dipolar Huisgen cycloaddition), which allows to scan the proteome of S. aureus for possible covalent binding partners. This compound consistently labels CIpP protease in a covalent manner in S. aureus proteomes.
The inventors used this compound in order to investigate whether compounds according to the present invention are able to reduce or suppress by non-covalent binding the covalent binding of the U1P ABPP probe to proteins of the S. aureus proteome. For a detailed description of the technique underlying these experiments see T. Böttcher, M. Pitscheider S. A. Sieber, Angew Chem Int Ed Engl. 2010, 2680.
Living S. aureus NCTC8325 cells from a fresh stationary liquid culture were aliquoted to equivalents of 1 ml of OD600=2. Bacterial cells were washed and resuspended in 100 μl PBS. Bacterial cell aliquots were then pre-incubated with the compounds AVU1AA or VK273 of the invention for 1 h at RT at final concentrations of 5 or 10 mM. Subsequently, the covalent ABPP probe UIP was added to a final concentration of 100 μM for 30 min at RT. After the competitive labeling procedure bacterial cells were washed twice, disrupted and labeled with rhodamine-azide using click chemistry. The labeled S. aureus proteome samples were separated by SDS-PAGE and visualized using fluorescence scanning.

[5] = target: T2, CIpP protease from S. aureus NCTC8325 (SaCIpP) (Staphylococcus aureus, UniProt Q2G036); assay: in vitro inhibition of recombinant S. aureus CIpP with SLY-AMC substrate; format: biochemical; conditions: inhibitor 2 mM (1000×), 30 min RT; SLY-AMC 200 μM; FIG. 3
T2 construct: made in house; host or cells: E. coli
T2 sequence (Q2G036 1-195): T1 sequence (Q2G036 1-195)
Experimental: The CIpP protease from S. aureus NCTC8325 (SaCIpP) was recombinantly overexpressed in E. coli and purified in order to investigate enzyme inhibition using SLY-AMC (N-succinyl-Leu-Tyr-7-amido-4-methylcoumarin) as fluorogenic model substrate.
Precisely, 9 μl of SaCIpP in buffered solution (final concentration 0.05 mg/ml, 2 μM; buffer: 100 mM NaCl, 20 mM Tris, pH 7.0) were incubated in the presence of 1 μl of various inhibitors (final concentration 2 mM=1000×) for 30 min at room temperature (RT). Subsequently, SLY-AMC was added to a final concentration of 200 μM and the increase in fluorescence due to enzymatic substrate proteolysis was measured using a TECAN GENios Pro™ plate reader at 380/440 nm (excitation/emission) at time intervals of 60 s over 40 min at 37° C. The enzymatic activity was determined as the slope of fluorescence (2=440 nm) over time. As positive controls, the in vivo active beta-lactone compound AVU1 (“U1”; WO 2009/106211) and the in vitro potent CIpP beta-lactone inhibitor D3 (WO 2009/106211) were employed.

For `C=CCCCCCCC[C@H]1C(=O)O[C@@H]1CCc1ccccc1` [AVU1, reference compound], the pEC50 ([1]; Staphylococcus aureus, NCTC8325, Erythrocyte, Assay 1, hemolysin production) was 3.85, the pEC50 ([1]; Staphylococcus aureus, NCTC8325, Erythrocyte, Assay 2, hemolysin production, assess relative to AVU1) was 4.30 to 5.00 and the pEC50 ([1]; Staphylococcus aureus, NCTC8325, Erythrocyte, Assay 3, hemolysin production, assess relative to AVU1) was 4.00 to 4.30. For the same compound, the pEC50 ([1]; Staphylococcus aureus, NCTC8325, Erythrocyte, Assay 4, hemolysin production, assess relative to AVU1) was 4.51, the MIC ([2]; Assay 2) was >1000 µM and the MIC ([2]; Assay 3) was >1000 µM. The MIC ([2]; Assay 4) was >1000 µM, the MIC ([2]; Staphylococcus aureus, NCTC8325, Assay 1) was > 1000 µM and the “stability in mouse plasma” value [3] was “degraded within a few minutes”.
`CCN(CC)CCOC(=O)c1ccc(N)cc1` [Procaine] gave a half-life at 100 μM [4] of 6 to 9 min.
With `C#CC[C@H]1C(=O)O[C@@H]1CCc1ccccc1` [U1P, reference compound] the “labeling signal of probe” value (CIpP; in the absence of competitive compounds) was “strong labeling signal with CIpP as the main target”.
For `C=CCCCCCCCC(CO)C(O)CCc1ccccc1` (stereo not shown) [VK273, 2-(non-8-enyl)-5-phenylpentandiol-1,3], the “inhibition of SaCIpP” value [5] was “inhibit SaCIpP at an at least comparable level as the in vivo active beta-lactone reference compound AVU1”, the pEC50 ([1]; Assay 1, hemolysin production) was 4.61 and the MIC ([2]; Assay 1) was >1000 µM. The “labeling in the absence of U1P” value (CIpP; bacterial cells incubated with compound alone) was “did not result in any unspecific labeling” and the “target binding of U1P after pre-incubation with competitor” value (CIpP; pre-incubation 1 h at RT at 5 or 10 mM, U1P 100 μM 30 min) was “significantly reduced target binding of U1P”.
